Assay results as given in publication PMC4660440 (Scientific Reports, 2015).
Read-outs that look alike come from different tables or passages of the source.

Legend:
Format in all cases: cell-based
MCF-7 = assay: MTT cytotoxicity assay, MCF-7; settings: Homo sapiens, MCF7, drug exposure 48 h, mean ± SD (n = 3), read-out: Cytotoxic activity (IC50) MCF-7
Protocol: (§1) HeLa, BGC823, A-549, MCF-7 and HT-7702 cell lines were obtained from the ATCC. […] Tumor cells (3500–13,000) were seeded into 96-well microtest plates in 100 μL of culture medium per well, incubated for 48 h in the presence or absence of test compounds (8 different concentrations ranging from 100 to 0.01 μg/mL). For quantitative estimation of cytotoxicity, the (MTT) method was used, essentially performed as described previously. Briefly, cells were washed twice with PBS, fixed for 15 min in 1% glutaraldehyde solution, rinsed twice in PBS, and stained in 0.5% MTT solution for 4 h at 37 °C. […] The initial seeding densities varied among the cell lines to ensure a final absorbance reading in control (untreated) cultures within the range of 0.6–0.8 A492 units. Drug exposure was carried out for 2 days, and the IC50 value, i.e., the drug concentration that decreased the absorbance by 50%, was extrapolated from dose-response data. Each test was performed in triplicate, and the absorbance readings between the triplicates varied by no more than 10%.

A549 = assay: MTT cytotoxicity assay, A549; settings: Homo sapiens, A549, drug exposure 48 h, mean ± SD (n = 3), read-out: Cytotoxic activity (IC50) A549
Protocol: as §1

[1] = MTT cytotoxicity assay, normal hepatic cell line HL-7702; settings: HL-7702 normal hepatic cells, human normal hepatic immortal cell line, drug exposure 48 h, mean ± SD (n = 3), read-out: Cytotoxic activity (IC50) HL-7702
Protocol: as §1

BGC-823 = assay: MTT cytotoxicity assay, BGC-823; settings: Homo sapiens, BGC-823, drug exposure 48 h, mean ± SD (n = 3), read-out: Cytotoxic activity (IC50) BGC-823
Protocol: as §1

HeLa = assay: MTT cytotoxicity assay, HeLa; settings: drug exposure 48 h, mean ± SD (n = 3), read-out: Cytotoxic activity (IC50) HeLa
Protocol: as §1

Compound	IC50 (MCF-7) [µM]	IC50 (A549) [µM]	IC50 at 48 h [1] [µM]	IC50 (BGC-823) [µM]	IC50 (HeLa; Homo sapiens, HeLa, 48 h) [µM]	IC50 (HeLa) [µM]
COc1cc([C@@H]2c3cc4c(cc3[C@@H](Nc3ccccc3Cl)[C@H]3COC(=O)[C@H]23)OCO4)cc(OC)c1OC [Compound 3]	21.1 ± 0.76	27.2 ± 1.95	13.2 ± 1.35	18.1 ± 1.03	26.7 ± 1.32	
COc1cccc(N[C@@H]2c3cc4c(cc3[C@@H](c3cc(OC)c(O)c(OC)c3)[C@H]3C(=O)OC[C@@H]32)OCO4)c1 [Compound 13′]	11 ± 1.26	7.27 ± 2.38	39.8 ± 2.73	13.8 ± 1.42	12.3 ± 0.74	
COc1cc([C@@H]2c3cc4c(cc3[C@@H](Nc3ccc(F)cc3)[C@H]3COC(=O)[C@H]23)OCO4)cc(OC)c1OC [Compound 10]	7.06 ± 0.37	12.1 ± 0.63	27.4 ± 1.98	17 ± 0.18	17.51 ± 0.04	
COc1cc([C@@H]2c3cc4c(cc3[C@@H](Nc3ccccc3F)[C@H]3COC(=O)[C@H]23)OCO4)cc(OC)c1O [Compound 4′]	15.3 ± 0.42	15.6 ± 1.75	31.5 ± 2.81	17.8 ± 0.34	20.7 ± 0.75	
COc1cc([C@@H]2c3cc4c(cc3[C@@H](Nc3ccc(Br)cc3)[C@H]3COC(=O)[C@H]23)OCO4)cc(OC)c1O [Compound 8′]	28.9 ± 1.06	62.4 ± 3.66	32.1 ± 0.96	62.1 ± 4.39	21.07 ± 0.17	
COc1cc([C@@H]2c3cc4c(cc3[C@@H](O[C@@H]3O[C@@H]5CO[C@@H](C)O[C@H]5[C@H](O)[C@H]3O)[C@H]3COC(=O)[C@H]23)OCO4)cc(OC)c1O [Etoposide, reference compound]	25.3 ± 1.93	20.1 ± 1.95	24.6 ± 3.82	25.5 ± 1.42	59.4 ± 2.45	59.4 ± 2.45
COc1ccccc1N[C@@H]1c2cc3c(cc2[C@@H](c2cc(OC)c(O)c(OC)c2)[C@H]2C(=O)OC[C@@H]21)OCO3 [Compound 11′]	9.42 ± 0.24	8.68 ± 0.29	63.57 ± 0.19	9.68 ± 0.17	13.5 ± 1.38	
COc1ccc(Br)cc1N[C@@H]1c2cc3c(cc2[C@@H](c2cc(OC)c(OC)c(OC)c2)[C@H]2C(=O)OC[C@@H]21)OCO3 [Compound 14]	4.97 ± 0.03	6.85 ± 0.75	87.6 ± 4.13	6.26 ± 0.36	7.07 ± 0.63	
COc1cc([C@@H]2c3cc4c(cc3[C@@H](Nc3cccc(F)c3)[C@H]3COC(=O)[C@H]23)OCO4)cc(OC)c1OC [Compound 7]	4.05 ± 0.26	6.8 ± 0.31	29.9 ± 0.74	5.21 ± 1.32	3.12 ± 0.18	
COc1cc([C@@H]2c3cc4c(cc3[C@@H](Nc3ccccc3F)[C@H]3COC(=O)[C@H]23)OCO4)cc(OC)c1OC [Compound 4]	16.1 ± 0.17	16.8 ± 1.22	16 ± 0.66	22.7 ± 0.97	22.1 ± 0.81	
COc1cc([C@@H]2c3cc4c(cc3[C@@H](Nc3cccc(F)c3)[C@H]3COC(=O)[C@H]23)OCO4)cc(OC)c1O [Compound 7′]	3.14 ± 0.15	3.88 ± 0.33	21.4 ± 1.57	2.24 ± 0.06	5.07 ± 0.31	
COc1cc([C@@H]2c3cc4c(cc3[C@@H](Nc3ccccc3)[C@H]3COC(=O)[C@H]23)OCO4)cc(OC)c1OC [Compound 1]		43.2 ± 3.32	41.8 ± 2.47	86.5 ± 4.21	35.1 ± 1.03	
COc1cc([C@@H]2c3cc4c(cc3[C@@H](Nc3ccccc3Br)[C@H]3COC(=O)[C@H]23)OCO4)cc(OC)c1O [2′]	27.6 ± 0.91	44.9 ± 3.12	47.4 ± 3.14	28.7 ± 1.04	31.3 ± 1.43	
COc1ccc(F)cc1N[C@@H]1c2cc3c(cc2[C@@H](c2cc(OC)c(O)c(OC)c2)[C@H]2C(=O)OC[C@@H]21)OCO3 [Compound 16′]	1.53 ± 0.07	3.17 ± 0.49	24.3 ± 0.69	1.32 ± 0.16	1.72 ± 0.3	
COc1cc([C@@H]2c3cc4c(cc3[C@@H](Nc3ccccc3)[C@H]3COC(=O)[C@H]23)OCO4)cc(OC)c1O [Compound 1′]	26.8 ± 0.67	42.5 ± 5.11	53.4 ± 4.34	68.2 ± 4.13	44.34 ± 0.34	
COc1cccc(N[C@@H]2c3cc4c(cc3[C@@H](c3cc(OC)c(OC)c(OC)c3)[C@H]3C(=O)OC[C@@H]32)OCO4)c1 [Compound 13]	13.8 ± 3.98	12.4 ± 0.38	38.8 ± 2.37	12.7 ± 1.06	11.6 ± 0.83	
COc1cc([C@@H]2c3cc4c(cc3[C@@H](Nc3ccc(F)cc3)[C@H]3COC(=O)[C@H]23)OCO4)cc(OC)c1O [Compound 10′]	9.84 ± 0.73	17.7 ± 0.47	29.6 ± 2.33	28.61 ± 0.06	16.32 ± 0.09	
COc1cc([C@@H]2c3cc4c(cc3[C@@H](Nc3cccc(Cl)c3)[C@H]3COC(=O)[C@H]23)OCO4)cc(OC)c1OC [Compound 6]	6.57 ± 0.15	7.23 ± 0.95	35.27 ± 0.21	9.32 ± 1.79	5.43 ± 0.27	
COc1ccc(Cl)cc1N[C@@H]1c2cc3c(cc2[C@@H](c2cc(OC)c(OC)c(OC)c2)[C@H]2C(=O)OC[C@@H]21)OCO3 [Compound 15]	2.24 ± 0.14	1.71 ± 0.26	19.3 ± 1.34	3.86 ± 0.29	2.64 ± 0.04	
COc1cc([C@@H]2c3cc4c(cc3[C@@H](Nc3ccc(Br)cc3)[C@H]3COC(=O)[C@H]23)OCO4)cc(OC)c1OC [Compound 8]	19.7 ± 0.62	52.9 ± 4.36	27.1 ± 2.31	46.2 ± 2.97	42.1 ± 0.91	
COc1ccc(F)cc1N[C@@H]1c2cc3c(cc2[C@@H](c2cc(OC)c(OC)c(OC)c2)[C@H]2C(=O)OC[C@@H]21)OCO3 [Compound 16]	1.92 ± 0.23	1.43 ± 0.09	27.7 ± 0.77	1.37 ± 0.17	1.46 ± 0.19	
COc1ccccc1N[C@@H]1c2cc3c(cc2[C@@H](c2cc(OC)c(OC)c(OC)c2)[C@H]2C(=O)OC[C@@H]21)OCO3 [Compound 11]	10.2 ± 0.61	14.1 ± 0.37	37.5 ± 1.75	14.2 ± 0.98	13.4 ± 1.31	
COc1cc([C@@H]2c3cc4c(cc3[C@@H](Nc3ccccc3Cl)[C@H]3COC(=O)[C@H]23)OCO4)cc(OC)c1O [Compound 3′]	37.5 ± 1.03	20.5 ± 0.42	2.42 ± 0.71	23.1 ± 1.87	23.4 ± 1.4	
COc1ccc(Br)cc1N[C@@H]1c2cc3c(cc2[C@@H](c2cc(OC)c(O)c(OC)c2)[C@H]2C(=O)OC[C@@H]21)OCO3 [Compound 14′]	4.21 ± 0.25	54.3 ± 4.49	87.6 ± 5.04	22.2 ± 2.02	6.47 ± 0.17	
COc1cc([C@@H]2c3cc4c(cc3[C@@H](Nc3cccc(Cl)c3)[C@H]3COC(=O)[C@H]23)OCO4)cc(OC)c1O [Compound 6′]	4.75 ± 0.37	5.03 ± 1.07	32.5 ± 0.86	6.59 ± 0.21	5.13 ± 0.05	
COc1cc([C@@H]2c3cc4c(cc3[C@@H](Nc3ccccc3Br)[C@H]3COC(=O)[C@H]23)OCO4)cc(OC)c1OC [Compound 2]	29.1 ± 1.78	35.1 ± 2.37	65.9 ± 2.37	17.9 ± 0.98	26.6 ± 2.03	
